Test results taken from patent US9139609B2, “C-4″ position substituted macrolide derivative” (priority 2011, dated 2015).
In brackets after ≈: the same amount, converted by molar mass.

Legend:
Format in all cases: cell-based
[1] = system: Streptococcus pneumoniae ATCC700904; experiment: In vitro antibacterial activity, microbroth dilution method (CLSI method), test bacterium C (erythromycin resistant); conditions: read-out: MIC (minimum inhibitory concentration), test bacterium C
Protocol: (§1) In vitro antibacterial activities of the compounds of the present invention against various test bacteria were measured according to the microbroth dilution method (CLSI method). Among them, the bacteria C, D and E are erythromycin resistant bacteria. The MIC values (minimum inhibitory concentration, μg/ml) for the test bacteria A and B are exemplified in Table 22.

[2] = system: Streptococcus pyogenes M808; experiment: In vitro antibacterial activity, microbroth dilution method (CLSI method), test bacterium D (erythromycin resistant); conditions: read-out: MIC (minimum inhibitory concentration), test bacterium D
Protocol: as §1

[3] = system: Mycoplasma pneumoniae MSC04933; experiment: In vitro antibacterial activity, microbroth dilution method (CLSI method), test bacterium E (erythromycin resistant); conditions: read-out: MIC (minimum inhibitory concentration), test bacterium E
Protocol: as §1

Row | SMILES | MIC [1] [µg/mL] | MIC [2] [µg/mL] | MIC [3] [µg/mL]
1 | CC[C@H]1OC(=O)[C@H](C)[C@@H](O[C@H]2C[C@@](C)(OC)[C@@](O)(CN(C)CCN(C)C(C)(C)c3ccccc3OC)[C@H](C)O2)[C@H](C)[C@@H](O[C@@H]2O[C@H](C)C[C@H](N(C)C)[C@H]2O)[C@@]2(C)C[C@@H](C)C3(NCCN4C(=O)O[C@@]1(C)[C@H]4[C@H]3C)O2 [Example 341] | 0.12 to 0.25 (≈ 0.116 to 0.242 µM) | ≤ 2 | ≤ 0.25
2 | CC[C@H]1OC(=O)[C@H](C)[C@@H](O[C@H]2C[C@@](C)(OC)[C@@](O)(CN(C)CCN(C)C(C)(C)c3ccccc3OC)[C@H](C)O2)[C@H](C)[C@@H](O[C@@H]2O[C@H](C)C[C@H](N(C)C)[C@H]2O)[C@@](C)(OC(N)=O)C[C@@H](C)C(=O)[C@H](C)[C@H]2NC(=O)O[C@@]21C [Example 342] | 0.12 to 0.25 (≈ 0.114 to 0.238 µM) | ≤ 2 | ≤ 0.25
3 | CC[C@H]1OC(=O)[C@H](C)[C@@H](O[C@H]2C[C@@](C)(OC)[C@@](O)(CN(C)CCN(C)C(C)(C)c3ccccc3OC)[C@H](C)O2)[C@H](C)[C@@H](O[C@@H]2O[C@H](C)C[C@H](N(C)C)[C@H]2O)[C@@](C)(OC)C[C@@H](C)C(=O)[C@H](C)[C@H]2C(C#N)C(=O)O[C@@]21C (stereo partly drawn) [Example 363] | 0.12 to 0.25 (≈ 0.115 to 0.239 µM) | ≤ 2 | ≤ 0.25
4 | CC[C@H]1OC(=O)[C@H](C)[C@@H](O[C@H]2C[C@@](C)(OC)[C@@](O)(CN(C)CCN(C)C)[C@H](C)O2)[C@H](C)[C@@H](O[C@@H]2O[C@H](C)C[C@H](N(C)C)[C@H]2O)[C@@](C)(OC)C[C@@H](C)C(=O)[C@H](C)[C@H]2C(SCCCn3cnc4c(N)ncnc43)C(=O)O[C@@]21C (stereo partly drawn) [Example 364] | ≤ 0.06 | ≤ 2 | ≤ 0.25
5 | CC[C@H]1OC(=O)[C@H](C)[C@@H](O[C@H]2C[C@@](C)(OC)[C@@](O)(CN(C)CCN(C(C)C)C(C)C)[C@H](C)O2)[C@H](C)[C@@H](O[C@@H]2O[C@H](C)C[C@H](N(C)C)[C@H]2O)[C@@](C)(OC)C[C@@H](C)C(=O)[C@H](C)[C@H]2N(CCNS(C)(=O)=O)C(=O)O[C@]12C [Example 404] | 0.12 to 0.25 (≈ 0.113 to 0.235 µM) | ≤ 2 | ≤ 0.25
